Source: the METLIN SMRT retention time set (Domingo-Almenara et al. 2019)

Test: gradient 5% acetonitrile 3 min, to 50% in 2 min, to 85% in 15 min, held 3 min, 100 µL/min
Conditions: column: Zorbax Extend-C18 2.1 x 50 mm; eluents: water / acetonitrile, 0.1% formic acid
Outline: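 Over 3 months, pure standards in mixtures of ~100 molecules were run by HPLC coupled to a quadrupole time-of-flight mass spectrometer in positive and negative ionization mode. The column was a Zorbax Extend-C18 (2.1 × 50 mm, 1.8 μm) at 100 μL/min, eluted with water and acetonitrile each holding 0.1% formic acid, with 40 μL dead and 900 μL dwell volumes. Retention time was determined from adduct peaks chosen by software and checked manually.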

RP-LC retention time [s]	SMILES
794	CCC(=O)N(C)CCc1noc(-c2ccc(C(=O)NC3CCCCCC3)cc2)n1
1170	O=S(=O)(c1ccc(Cl)cc1)N1CCC(c2noc(-c3ccccc3)n2)CC1
674	NC(=O)C1CCN(C(=O)c2cc(-c3ccccc3Cl)on2)CC1
624	Cc1nnc(NC(=O)C2CCN(C(=O)c3ccc(F)cc3)CC2)s1
925	COc1ccc(-c2noc(C3CCCN3C(=O)Nc3ccc(C)cc3C)n2)cc1 (stereo unspecified)
859	CC1=C(c2ccc(C)cc2)S(=O)(=O)N=C1N1CCCN(C(=O)c2ccc(F)cc2)CC1
671	NC(=O)C1CCN(C(=O)CCc2nnc3c4cc(-c5ccc(Cl)cc5)nn4ccn23)CC1
813	Cc1ccc(Cn2cc(CCC(=O)N3CCC(C(N)=O)CC3)c3ccccc32)cc1
689	CC1CCN(c2cc(C(=O)O)c3cc(NC(=O)c4ccc(Br)cc4)ccc3n2)CC1
736	CCCNc1cc(N2CCC(CCC(=O)Nc3ccc(OCC)cc3)CC2)ncn1
714	CCN(CC)C(=O)c1ccc2c(c1)nnn2CCNC(=O)Nc1cc(F)ccc1F
665	CCc1ccc(NC(=O)N2CCC(n3cnnc3C3CC3)C2)cc1 (stereo unspecified)
565	O=C(c1cc(-c2cccnc2)n[nH]1)N1CCN(C(=O)C2CC2)CC1
796	CC(C)n1c(-c2cccc(C(=O)NC3CCCC3)c2)nc2cccnc21
849	CCn1nccc1C(=O)N1CCCC1c1cccc(C)c1 (stereo unspecified)
1100	Cc1ccc(CNC(=O)Cn2nc(N3CCCCCC3)c3ccccc3c2=O)cc1
810	CCOC(=O)c1c(C)nc(C)c(C(=O)OCC)c1-c1cccnc1
778	O=C(NC1CCc2ccccc21)C1CCN(c2ncnc3c2oc2ccccc23)CC1 (stereo unspecified)
612	O=C(CCc1cccc2[nH]ccc12)NCc1ccc(N2CCCCC2)cc1
1150	CCOc1ccc(N2CCCCn3c2nc2c3c(=O)n(CCC(C)C)c(=O)n2C)cc1
759	CCc1ccccc1NC(=O)Cn1cnc2nc(N3CCCC(C(=O)NC(C)C)C3)sc2c1=O (stereo unspecified)
668	O=C(Nc1cc(-c2ccccn2)no1)C1CC1
829	COc1cccc(CNC(=O)c2nnc(-c3ccc(S(=O)(=O)N(C)C)cc3)o2)c1OC
921	CCc1ccc(NC(=O)Cn2c(=O)nc(N3CCC(C)CC3)c3ccccc32)cc1
570	CCCNC(=O)Cc1cn2cc(Br)ccc2n1
612	Cn1c(NC(=O)c2ccc(S(=O)(=O)N3CCOCC3)cc2)cc(=O)n(C)c1=O
591	O=C(NC1CCN(Cc2ccccc2)CC1)C1CC(=O)N(c2n[nH]c3cccc(F)c23)C1 (stereo unspecified)
732	COC(=O)c1cccc(NC(=O)NCCn2nnc3cc(S(=O)(=O)N(C)C)ccc32)c1
896	O=S(=O)(c1ccccc1)N1CCC(c2nc(CCOCC3CC3)no2)C1 (stereo unspecified)

Second part, the molecule before the results:

SMILES	RP-LC retention time [s]
Cc1ccc(S(=O)(=O)N2c3ccccc3NC3=C(C(=O)CCC3)C2c2ccco2)cc1 (stereo unspecified)	837
CN1CCN(CC2(O)CCC3(CCN(C(=O)c4ccoc4)CC3)CC2)CC1	551
CC(=O)N1CCC(CC(=O)N(C)CC2(C)CCOCC2)CC1	594
COc1cc(-c2nc(-c3ccc4c(c3)oc(=O)n4C(C)C)no2)cc(OC)c1OC	1110
Cc1ccc(CNC(=O)N2CCN(Cc3nc4cc(-c5ccccc5)ccc4o3)CC2)cc1	854
Fc1cc(F)c2c(c1)C1C=CCC1C(c1cccnc1)N2 (stereo unspecified)	706
O=C(N[C@@H]1CN(c2ncccn2)C[C@H]1CO)C1(c2ccccc2)CC1	654
Fc1ccccc1-c1noc(Cc2nnc(-c3cccc(Br)c3)o2)n1	1110
Cc1ncc2c(n1)C[C@@H]1CC[C@H]2N1C(=O)c1ccccn1	603
COc1ccc(C)cc1NC(=O)CN1C(=O)C(C)(C)c2cc(C)ccc21	588
CCN(CC)S(=O)(=O)c1c(C)[nH]c(=O)[nH]c1=O	578
COc1ccc(-c2cn3ccn(-c4cc(C)cc(C)c4)c(=O)c3n2)cc1	874
CCCCCn1c(=O)c2ccccc2n(Cc2nc(-c3ccccc3OC)no2)c1=O	1130
O=c1c2ccccc2ccc2ccccc12	1120
Cc1ccc(-c2noc(Cc3nnc(-c4ccccc4)o3)n2)cc1	1040
Cn1c(=O)c2c(ncn2CC(=O)N2CCC(Cc3nc(C4CCOCC4)no3)CC2)n(C)c1=O	610
CCCCN1C(=O)C(NC(=O)c2ccccc2OC)(C(F)(F)F)C2=C1CC(C)(C)CC2=O (stereo unspecified)	1080
Cc1cc(C(=O)N2CCOCC2)nn1CC(=O)Nc1nc2ccccc2s1	683
COc1ccc2c(c1)c(N1CCCC1=O)c(C(=O)Nc1ccc(F)cc1)n2C	952
COc1ccc2[nH]c(C(=O)N[C@@H](C)C(=O)NCCc3c[nH]c4ccccc34)cc2c1OC	769
O=C(Cc1ccc(Cl)cc1)N1CCN(c2ccc(Nc3ccccn3)nn2)CC1	603

SMILES	RP-LC retention time [s]
O=C(c1ccc(N2C(=O)CCS2(=O)=O)cc1Cl)N1CCN(c2ccccn2)CC1	583
CC1(C(=O)NCc2ccccc2)CN(S(C)(=O)=O)CC(=O)N1Cc1ccc(F)cc1 (stereo unspecified)	779
COc1ccc(-c2ncc3c(n2)CCN(C(=O)c2ccc(F)cc2Cl)C3)cc1	971
CC(Oc1ccc(Cl)cc1Cl)C(=O)NCCn1ncccc1=O (stereo unspecified)	722
CN1CCOc2ccc(NC(=O)c3cc(-c4ccc(F)cc4)n[nH]3)cc2C1=O	686
COCc1c(C(=O)O)nnn1-c1ccc2c(c1)OCO2	648
CS(=O)(=O)N1CCC(OC2CCN(C(=O)Cc3c[nH]c4ccccc34)CC2)CC1	688
Cc1nnc(-c2nnc(N3CCCC3)c3ccccc23)o1	568
CSc1ccc(-c2nc3cccc(C)n3c2Nc2ccc3c(c2)OCO3)cc1	712
CCn1ncc(Cl)c1C(=O)N1CCCC1c1cc(C)no1 (stereo unspecified)	741
O=C(c1ccoc1)N1CC(F)(F)C[C@H]1c1nnc(-c2ccncc2)o1	668
Cc1c(NC(=O)C2CCN(S(=O)(=O)Cc3ccccc3)CC2)c(=O)n(-c2ccccc2)n1C	672
Cc1nc(N2CCN(c3ccccn3)CC2)nc2oc(-c3ccccc3)nc12	755
Cc1cc(C)n2nc(SCC(=O)Nc3cccc(Cl)c3)nc2n1	789
Cc1ccnc(NC(=O)Cn2ccc3ccc(-c4nnc(C)o4)cc32)c1	674
Cc1cc(N2C=C(C(=O)N3CCOCC3)S(=O)(=O)c3ccccc32)ccc1Br	855
COCCCNC(=O)C1CCN(Cc2cc3ccccc3n2Cc2ccccc2Cl)CC1	713
CCC1(O)CCOC2(CCN(C(=O)C3CC=CC3)CC2)C1 (stereo unspecified)	686
CCn1ccc2sc(C)c(C(=O)NCc3cccc(F)c3)c2c1=O	822
O=C(NCc1ccncc1)c1ccc(-c2cccs2)nc1	588
Cc1cc(NC(=O)CN2C(=O)NC(c3ccccc3Cl)C3=C2COC3=O)ccc1Br (stereo unspecified)	887

SMILES	RP-LC retention time [s]
CC(=O)Nc1ccc(S(=O)(=O)N2CCC3(CC2)Nc2cc(F)ccc2-n2cccc23)cc1	967
Cc1cc(=O)n(CC(=O)Nc2cc(F)ccc2F)c(N2CCOCC2)n1	698
COc1ccc(-c2nnc(-c3ccccc3Cl)o2)cc1S(=O)(=O)N(C)C	895
COc1ccc(-c2cc(-c3ccccc3)nc3c2CC(=O)Nc2ccccc2-3)cc1OC	1100
Cc1ccc(CNC(=O)Cn2nc3c(Oc4cc(C)cc(C)c4)nccn3c2=O)cc1	943
Clc1ccc2nc3ccccc3cc2c1	842
Cc1ccc(CNC(=O)C2(C)Oc3cccnc3N(C(C)C)C2=O)cc1 (stereo unspecified)	982
O=C(Nc1cccc(-c2cn3cccnc3n2)c1)c1c(F)cccc1F	668
COc1ccc(-c2nc(-c3ccc(-c4ccc(Cl)cc4)o3)[nH]c2-c2ccc(OC)cc2)cc1	988
Cc1nc(C)c(-c2ccc(=O)[nH]n2)s1	558
O=S(=O)(c1ccc2c(c1)CCC2)N1CCC(CN2CCCCCC2)CC1	708
COc1cccc(-n2c(=O)c3sccc3n(Cc3nc(-c4ccc(C)c(C)c4)no3)c2=O)c1	1160
Cc1cccc(Cn2nc3ccc(S(=O)(=O)N4CCCCC4)cn3c2=O)c1	915
Cc1noc(C2CN(C(=O)Nc3ccc4c(c3)CCC4)CC23CCOCC3)n1 (stereo unspecified)	777
Cc1noc(-c2nc(-c3cccc(Cl)c3)no2)n1	1070
CC(C)C(=O)Nc1cccn2nc(C(C)C)nc12	780
CN(CC1CCOC1)C(=O)Nc1cccc(F)c1 (stereo unspecified)	660
CN1C(=O)Cc2cc(C(=O)N3CCN(c4ccc(Cl)cc4)CC3)ccc21	813
CCN1C(=O)Cc2ccccc2C1C(=O)NCc1cccs1 (stereo unspecified)	716
Cc1ccc(-c2nc(-c3cccc(-c4ccnn4C)c3)no2)s1	1160
